From patent US20260085034A1, “N-(BENZHYDRYL)CYCLOALKYLCARBOXAMIDE DERIVATIVES AS INHIBITORS OF GLYCOGEN SYNTHASE 1 (GYS1) AND METHODS OF USE THEREOF” (Maze Therapeutics, Inc., priority 2022, published 2026)

Experiments:
[1] = tested on: glycogen synthesis in HeLa cells (hGYS1); assay: GYS1 cell based assay (glycogen digestion, Glucose-glo); conditions: Homo sapiens, 24 h incubation, 20 mM glucose, geometric mean of at least 2 runs, read-out: Cellular IC50
Excerpt: The GYS1 cell based assay is a bioluminescent assay that quantifies the glucose resulting from glycogen digestion; the quantified glucose is an indirect measure of GYS1 glycogen synthesis. Newly synthesized glycogen is digested using Glucoamylase; the resulting glucose is quantified by using the Glucose-glo assay kit from Promega. Glucose-glo works by coupling glucose oxidation and NADH production with a bioluminescent system that is activated with NADH. Glucose is oxidized by Glucose dehydrogenase and the reaction reduces NAD+ to NADH; NADH activates Reductase which reduces a pro-luciferin Reductase Substrate to luciferin. Luciferin is detected in a luciferase reaction using Ultra-Glo rLuciferase and ATP, and the luminesce produced is proportional to the glucose in the sample. The luminescence is measured as a single point read in a plate reader.
Compounds that inhibit the hGYS1 enzyme and, subsequently, the glycogen synthesis in cells, were tested using assay ready plates (white, clear bottom 384 well plates) in a final DMSO reaction volume of 1% DMSO. Compounds in the assay ready plates were mixed with media with no additives, except for 20 mM glucose prior to cell addition. HeLa cells were starved in media with no additives, except for 1× Glutamax for 24 h. Starved HeLa cells were plated, in a 1:1 ratio to the media in the assay ready plate and incubated for 24 h at 37° C. and 5% CO2. Cells were washed in 1×PBS buffer and lysed in lysis buffer containing 50% 1×PBS and 25% 0.3 N HCl of the final volume in the well or reaction volume; cells were incubated with lysis buffer for 10 minutes and quenched with the remaining 25% of the reaction volume that consisted of 450 mM Tris pH 8.0. Lysates were mixed in a 1:1 ratio with Glucoamylase in 100 mM Sodium Acetate buffer, pH 5.3; the mixture was incubated for 1 h at 37° C. The digested lysate was mixed in a 1:1 ratio with Glucose-glo detection mixture as per vendor recommendations (Luciferase detection buffer, Reductase, Reductase substrate, Glucose dehydrogenase, and NAD) in read-out plates (solid white 384-well plates) and incubated for 1 h at RT. The plates were read using a plate reader with luminescence capabilities. Each compound concentration Relative Luminescence Unit (RLU) was averaged and normalized to the average RLU of the positive and negative controls to obtain a percentage inhibition. The normalized data vs. concentration was plotted; to determine the half-maximal concentration (IC50), the Levenberg-Marquardt algorithm was used to fit a Hill equation to the dose response data.
(§1) The results are shown in Table 4 below, which reports the IC50 of each compound. Unless otherwise specified, IC50 values are reported as the geometric mean of at least 2 assay runs on separate days. As shown in the table below, the compounds of the present invention are potent inhibitors of human GYS1. Unless otherwise specified, IC50 values are reported as the geometric mean of at least two assay runs on separate days. Each run represents the average of a technical replicate, where each compound was assayed twice in the same plate.

[2] = target: T1, recombinant hGYS1/GN1 protein (Homo sapiens, UniProt P13807); assay: GYS1 coupled enzyme assay (PK/LDH); assay type: biochemical; conditions: geometric mean of at least 2 assay runs; NADH absorbance at 340 nm
T1 sequence (P13807 1-737): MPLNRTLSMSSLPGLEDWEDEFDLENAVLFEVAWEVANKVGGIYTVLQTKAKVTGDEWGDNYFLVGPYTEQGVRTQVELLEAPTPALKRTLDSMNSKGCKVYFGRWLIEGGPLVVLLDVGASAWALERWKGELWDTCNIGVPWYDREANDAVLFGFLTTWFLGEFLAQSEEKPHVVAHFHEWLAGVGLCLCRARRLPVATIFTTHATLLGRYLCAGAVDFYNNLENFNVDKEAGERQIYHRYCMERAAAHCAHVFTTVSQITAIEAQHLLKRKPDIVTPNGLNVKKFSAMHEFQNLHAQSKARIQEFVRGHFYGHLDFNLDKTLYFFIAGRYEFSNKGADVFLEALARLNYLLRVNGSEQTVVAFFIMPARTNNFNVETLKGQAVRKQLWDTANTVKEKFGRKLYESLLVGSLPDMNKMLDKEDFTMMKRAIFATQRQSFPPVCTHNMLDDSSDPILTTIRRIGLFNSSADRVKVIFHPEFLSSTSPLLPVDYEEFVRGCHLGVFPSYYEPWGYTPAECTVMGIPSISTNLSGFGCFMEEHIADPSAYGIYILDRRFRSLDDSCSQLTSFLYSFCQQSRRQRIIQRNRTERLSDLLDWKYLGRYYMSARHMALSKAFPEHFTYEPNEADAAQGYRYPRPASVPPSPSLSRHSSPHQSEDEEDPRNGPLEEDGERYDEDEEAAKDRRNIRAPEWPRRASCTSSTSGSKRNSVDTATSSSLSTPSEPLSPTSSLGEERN
T1 sequence (P46976 1-350 partner): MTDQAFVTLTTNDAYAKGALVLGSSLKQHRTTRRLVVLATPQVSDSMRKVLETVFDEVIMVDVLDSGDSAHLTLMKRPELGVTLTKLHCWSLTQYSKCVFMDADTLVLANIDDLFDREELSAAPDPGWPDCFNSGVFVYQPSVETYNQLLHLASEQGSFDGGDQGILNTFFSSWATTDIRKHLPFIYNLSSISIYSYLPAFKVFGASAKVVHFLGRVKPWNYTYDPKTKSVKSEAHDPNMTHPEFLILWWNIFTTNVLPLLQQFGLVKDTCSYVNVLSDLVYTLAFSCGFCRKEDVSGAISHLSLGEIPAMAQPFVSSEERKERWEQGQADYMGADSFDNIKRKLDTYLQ
Summary of the method: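 Recombinant hGYS1/GN1 (50 nM) with 0.8 mM UDP-glucose, 0.2% glycogen and 1 mM glucose-6-phosphate in Tris pH 7.5, 2.5% DMSO. UDP formation coupled via PK/LDH to NADH oxidation, read at 340 nm over 10 min. Control-normalized slopes fit to Hill equation; IC50 as geometric mean of ≥2 runs.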

[3] = target: T2, recombinant hGYS2/GN1 protein (Homo sapiens, UniProt P54840); assay: GYS2 coupled enzyme assay (PK/LDH); assay type: biochemical; conditions: geometric mean of at least 2 assay runs; NADH absorbance at 340 nm
T2 sequence (P54840 1-703): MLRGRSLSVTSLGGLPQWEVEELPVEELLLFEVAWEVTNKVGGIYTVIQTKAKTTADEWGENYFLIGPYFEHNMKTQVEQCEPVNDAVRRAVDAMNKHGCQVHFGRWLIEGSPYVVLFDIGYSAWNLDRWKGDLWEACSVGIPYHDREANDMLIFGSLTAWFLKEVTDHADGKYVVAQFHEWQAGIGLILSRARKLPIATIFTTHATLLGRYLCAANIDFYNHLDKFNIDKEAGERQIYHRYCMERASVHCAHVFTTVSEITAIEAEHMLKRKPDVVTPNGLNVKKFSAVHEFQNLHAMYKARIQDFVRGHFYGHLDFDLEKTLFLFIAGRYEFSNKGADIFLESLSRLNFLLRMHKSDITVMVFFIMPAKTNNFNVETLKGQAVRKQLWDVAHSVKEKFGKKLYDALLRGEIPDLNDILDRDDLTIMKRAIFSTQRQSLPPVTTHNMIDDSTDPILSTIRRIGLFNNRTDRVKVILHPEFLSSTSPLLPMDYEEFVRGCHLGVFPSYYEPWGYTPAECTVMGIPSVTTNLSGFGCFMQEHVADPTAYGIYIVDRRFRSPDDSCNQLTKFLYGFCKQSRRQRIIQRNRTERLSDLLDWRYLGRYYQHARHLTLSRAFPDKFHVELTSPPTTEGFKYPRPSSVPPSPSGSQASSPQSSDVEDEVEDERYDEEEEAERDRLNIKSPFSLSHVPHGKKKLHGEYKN
T2 sequence (P46976 1-350 partner): T1 sequence (P46976 1-350 partner)
Excerpt: The GYS2 coupled enzyme assay is a kinetic biochemical assay that indirectly quantifies the rate of glycogen synthesis by coupling the conversion of GYS2 substrate UDP-glucose into UDP with downstream enzymatic reactions. UDP is released from UDP-glucose as glucose monomers are linked into the growing glycogen strand by GYS2. The coupled assay then proceeds with pyruvate kinase utilizing UDP and phospho(enol)pyruvate (PEP) to form pyruvate. Lactate dehydrogenase then converts pyruvate and NADH into lactate and NAD+. Oxidation of NADH to NAD+ can be measured continuously with a plate reader by quantifying the decrease in NADH absorbance at 340 nm over time.
Compounds that inhibit the hGYS2 enzyme and, subsequently, the downstream conversion of NADH to NAD+, were tested using assay ready plates (black, clear bottom 384 well plates) in a final DMSO reaction volume of 2.5% DMSO. The Assay Buffer contained 50 mM Tris pH 7.5, 2 mM MgCl2, and 100 mM KCl. Fresh stocks of BSA at a final concentration of 0.02% and TCEP 1 mM were added before splitting buffer into hGYS2 buffer and substrate buffer. To the hGYS2 buffer, rabbit liver glycogen was added at a final concentration of 0.2% glycogen. Glucose-6-Phosphate was added at 2 mM, recombinant hGYS2/GN1 protein was added at 200 nM to the substrate buffer, phosphoenolpyruvate (PEP) was added at 2 mM, UDP-Glucose was added at 2 mM, NADH was added at 0.6 mM, and Pyruvate Kinase/Lactate Dehydrogenase was added at 20 units/mL. The reaction was initiated by mixing hGYS2 buffer and substrate buffer at a 1:1 ratio. Both buffers were plated using a liquid dispensing device with hGYS2 buffer plated first followed by the substrate buffer. Plates were spun briefly to eliminate air bubbles and are immediately read in continuous mode at an absorbance of 340 nm, for 10 time points in one-minute increments, for a total of 10 minutes. The slope from these 10 time points was normalized to the positive and negative control wells. The duplicate % inhibition values are then averaged and fit to a Hill equation for dose response according to the Levenberg-Marquardt algorithm with the Hill equation maximum set to 100 and the minimum set to 0.
as §1, with “in Table 5 below, which” for “in Table 4 below, which”, “invention are not potent inhibitors” for “invention are potent inhibitors”, “of human GYS2.[…]” for “of human GYS1. Unless otherwise”

SMILES	IC50 [1] [nM]	IC50 [2] [nM]	IC50 [3] [nM]
CC(C)c1ccc([C@@H](NC(=O)[C@H]2C[C@@H]2F)c2cccc3[nH]c(=O)[nH]c23)cc1F (single isomer, unassigned) [compound 5]	1060	131	–
CC(C)c1ccc([C@@H](NC(=O)[C@H]2C[C@@H]2F)c2cccc(-c3ccn[nH]3)c2)nc1F (single isomer, unassigned) [compound 4]	2790	156	–
CC(C)c1ccc([C@@H](NC(=O)C2CC2)c2ccccc2NC(=O)C2CN(C)C2)cc1 [compound 26, (R)-N-(2-(cyclopropanecarboxamido(4-isopropylphenyl)methyl)phenyl)-1-methylazetidine-3-carboxamide]	–	1190	> 100000
CC(C)c1ccc([C@@H](NC(=O)[C@H]2C[C@@H]2F)c2ccccc2)cc1 [compound 36, (1R,2S)-2-fluoro-N-((S)-(4-isopropylphenyl)(phenyl)methyl)cyclopropane-1-carboxamide]	–	418	> 100000
CC(C)c1ccc([C@@H](NC(=O)C2CC2)c2ccccc2NS(C)(=O)=O)cc1 [compound 57, (R)-N-((4-isopropylphenyl)(2-(methylsulfonamido)phenyl)methyl)cyclopropanecarboxamide]	–	2170	> 100000
CC(C)c1ccc([C@@H](NC(=O)C2CC2)c2ccccc2)cc1 [compound 73, (S)-N-((4-isopropylphenyl)(phenyl)methyl)cyclopropanecarboxamide]	–	706	> 100000
CC(C)c1ccc([C@@H](NC(=O)[C@H]2C[C@@H]2F)c2ccc3cn[nH]c3c2)nc1F (single isomer, unassigned) [compound 3]	1510	55	–
CC(C)c1ccc([C@@H](NC(=O)C2CC2)c2ccn[nH]2)cc1 [compound 56, (R)-N-((4-isopropylphenyl)(1H-pyrazol-5-yl)methyl)cyclopropanecarboxamide]	–	372	> 100000
NC(=O)Nc1ccccc1[C@H](NC(=O)C1CC1)c1ccc(C2CCC2)cc1 (single isomer, unassigned) [compound 18]	–	964	> 100000
CC(=O)Nc1ccc(F)cc1[C@H](NC(=O)C1CC1)c1ccc(C(C)C)cc1 (single isomer, unassigned) [compound 44]	–	378	> 100000
O=C(N[C@@H](c1ccccc1)c1ccc(C2CC2)c(F)n1)[C@H]1C[C@@H]1F [compound 2, (1R,2S)-N-((S)-(5-cyclopropyl-6-fluoropyridin-2-yl)(phenyl)methyl)-2-fluorocyclopropane-1-carboxamide]	6520	1140	–
Cc1ccccc1[C@H](NC(=O)C1CC1)c1ccc(C(C)C)cc1 (single isomer, unassigned) [compound 65]	–	514	> 100000
CC(=O)Nc1ccccc1[C@H](NC(=O)C1CC1)c1ccc(C(C)C)cn1 [compound 46, (S)-N-((2-acetamidophenyl)(5-isopropylpyridin-2-yl)methyl)cyclopropanecarboxamide]	–	1420	> 100000
CC(C)c1ccc([C@@H](NC(=O)C2CC2)c2ccccc2NC(=O)C2CC2)cc1 (single isomer, unassigned) [compound 61]	–	710	> 100000
